Measurements reported in ChEMBL document CHEMBL4673352, “Discovery of AZD4573, a Potent and Selective Inhibitor of CDK9 That Enables Short Duration of Target Engagement for the Treatment of Hematological Malignancies” (J Med Chem, 2020).

Legend:
[1] = Drug metabolism in human liver microsomes assessed as (1S,3R)-3-acetamido-N-(5-fluoro-4-(6-hydroxy-5,5-dimethyl-5,6-dihydro-4H-pyrrolo[1,2-b]pyrazol-3-yl)pyridin-2-yl)cyclohexanecarboxamide formation at 10 uM measured after 1 hr in presence of NADPH by LC-UV-MS analysis; assay type: ADME, Microsome
[2] = Clearance in mouse plasma at […], iv; assay type: ADME; conditions: dose 2.4 µmol/kg
[3] = Drug metabolism in human hepatocytes assessed as (1S,3R)-3-acetamido-N-(5-fluoro-4-(5-(3-hydroxy-2,2-dimethylpropyl)-1H-pyrazol-4-yl)pyridin-2-yl)cyclohexanecarboxamide metabolite formation; assay type: ADME, cell-based, Hepatocyte
Homo sapiens [4] = organism: Homo sapiens; assay: Selectivity ratio of IC50 for CDK6 (unknown origin) in presence of 5 mM ATP to IC50 for Inhibition of recombinant full length human N-terminal GST-fused CDK9 (1 to 372 residues)/His-tagged CyclinT1 (1 to 726 residues) expressed in baculovirus infected insect cells
[5] = target: CDK2/Cyclin A2 (Homo sapiens) (UniProt P24941+P20248); assay: Inhibition of human recombinant full-length CDK2/CyclinA expressed in Sf21 insect cells using Histone H1 as substrate at 1 uM incubated for 40 mins in presence of [gamma32P]-ATP by scintillation counting method relative to control
Homo sapiens [6] = organism: Homo sapiens; assay: Selectivity ratio of IC50 for human recombinant N-terminal GST-TEV tagged CDK12 (696 to 1082 residues)/full length human CyclinK expressed in baculovirus expression system to IC50 for Inhibition of recombinant full length human N-terminal GST-fused CDK9 (1 to 372 residues)/His-tagged CyclinT1 (1 to 726 residues) expressed in baculovirus infected insect cells
Homo sapiens [7] = organism: Homo sapiens; assay: Selectivity ratio of IC50 for CDK4 (unknown origin) in presence of 5 mM ATP to IC50 for Inhibition of recombinant full length human N-terminal GST-fused CDK9 (1 to 372 residues)/His-tagged CyclinT1 (1 to 726 residues) expressed in baculovirus infected insect cells
CDK9/cyclin T1 = CDK9/cyclin T1 (Homo sapiens, UniProt O60563+P50750); assay: Inhibition of human recombinant full-length CDK9/CyclinT1 expressed in Sf21 insect cells using PDKtide as substrate at 1 uM incubated for 40 mins in presence of [gamma32P]-ATP by scintillation counting method relative to control
Homo sapiens [8] = organism: Homo sapiens; assay: Selectivity ratio of IC50 for recombinant full length human CDK7/cyclinH1/MAT1 expressed in insect cells to IC50 for Inhibition of recombinant full length human N-terminal GST-fused CDK9 (1 to 372 residues)/His-tagged CyclinT1 (1 to 726 residues) expressed in baculovirus infected insect cells
[9] = Drug metabolism in human hepatocytes assessed as (1S,3R)-3-acetamido-N-(5-chloro-4-(6-hydroxy-5,5-dimethyl-5,6-dihydro-4H-pyrrolo[1,2-b]pyrazol-3-yl)pyridin-2-yl)cyclohexanecarboxamide metabolite formation; assay type: ADME, cell-based, Hepatocyte
NOMO-1 = assay: Antitumor activity against human NOMO1 cells xenografted in CB17 SCID mouse assessed as tumor growth inhibition at 5 mg/kg, ip BID administered at 2 hrs dosing interval with 2 days on and 5 days off dosing schedule measured 12 days post initial dose; assay type: functional; conditions: NOMO-1, ip, 288 h, time 12 day, read-out: TGI
[10] = Half-life in Beagle dog at 0.23 umol/kg, iv administered over 0.25 hrs formulated as solution in 10% DMSO/90% water; assay type: ADME, organism-based, Canis lupus familiaris; conditions: in vivo, dose 0.23 µmol/kg
[11] = target: Dual specificity mitogen-activated protein kinase kinase 7 (Homo sapiens) (UniProt O14733); assay: Inhibition of human recombinant […] using NK1a1 as substrate at 1 uM incubated for 40 mins in presence of [gamma32P]-ATP by scintillation counting method relative to control
Chain of Dual specificity mitogen-activated protein kinase kinase 7 (Homo sapiens) (O14733 whole entry): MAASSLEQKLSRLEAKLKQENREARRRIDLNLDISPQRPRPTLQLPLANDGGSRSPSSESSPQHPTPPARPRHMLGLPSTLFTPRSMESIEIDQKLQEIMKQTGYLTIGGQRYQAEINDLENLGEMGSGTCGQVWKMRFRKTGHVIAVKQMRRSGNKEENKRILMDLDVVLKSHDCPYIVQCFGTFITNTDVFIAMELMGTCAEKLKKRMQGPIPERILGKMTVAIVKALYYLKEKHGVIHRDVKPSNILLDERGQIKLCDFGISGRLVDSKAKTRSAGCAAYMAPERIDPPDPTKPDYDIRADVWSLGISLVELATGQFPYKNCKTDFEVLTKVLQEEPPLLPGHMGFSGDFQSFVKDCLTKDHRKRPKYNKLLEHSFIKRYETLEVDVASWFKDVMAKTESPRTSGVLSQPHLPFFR

[12] = target: Mitogen-activated protein kinase 8 (Homo sapiens, UniProt P45983); assay: Inhibition of human recombinant His-tagged JNK1 expressed in baculovirus expression system at 0.1 uM incubated for 60 mins by TR-FRET based LanthaScreen Eu kinase binding assay relative to control
Chain of Mitogen-activated protein kinase 8 (P45983 whole entry): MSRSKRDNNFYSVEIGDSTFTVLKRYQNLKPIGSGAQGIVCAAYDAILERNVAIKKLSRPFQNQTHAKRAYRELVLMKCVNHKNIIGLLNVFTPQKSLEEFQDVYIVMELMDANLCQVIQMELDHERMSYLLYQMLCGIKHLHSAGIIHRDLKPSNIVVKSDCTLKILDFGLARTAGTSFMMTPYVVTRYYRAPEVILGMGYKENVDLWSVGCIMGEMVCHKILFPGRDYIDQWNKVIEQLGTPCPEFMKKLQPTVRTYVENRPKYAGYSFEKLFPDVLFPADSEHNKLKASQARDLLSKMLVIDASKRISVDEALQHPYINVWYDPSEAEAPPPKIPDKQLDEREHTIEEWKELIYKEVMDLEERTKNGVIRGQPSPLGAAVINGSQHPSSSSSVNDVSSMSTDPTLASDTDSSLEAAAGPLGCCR

[13] = Drug metabolism in human liver microsomes assessed as3-(4-(2-((1S,3R)-3-acetamidocyclohexanecarboxamido)-5-chloropyridin-4-yl)-1H-pyrazol-5-yl)-2,2-dimethylpropanoic acid formation at 10 uM measured after 1 hr in presence of NADPH by LC-UV-MS analysis; assay type: ADME, Microsome
[14] = Half-life in cynomolgus monkey at 0.46 umol/kg, iv administered over 0.25 hrs formulated as solution in DMA/PEG400/Tween80; assay type: ADME, organism-based, Macaca fascicularis; conditions: in vivo, dose 0.46 µmol/kg
[15] = target: Glycogen synthase kinase-3 alpha (Homo sapiens, UniProt P49840); assay: Inhibition of kinase tracer 236 binding to N-terminal GST-tagged human full length GSK3alpha expressed in baculovirus expression system by Lanthascreen Eu kinase binding assay; conditions: dose 0.1 µM, time 60.0 min
Chain of Glycogen synthase kinase-3 alpha (P49840 2-483 limits assumed): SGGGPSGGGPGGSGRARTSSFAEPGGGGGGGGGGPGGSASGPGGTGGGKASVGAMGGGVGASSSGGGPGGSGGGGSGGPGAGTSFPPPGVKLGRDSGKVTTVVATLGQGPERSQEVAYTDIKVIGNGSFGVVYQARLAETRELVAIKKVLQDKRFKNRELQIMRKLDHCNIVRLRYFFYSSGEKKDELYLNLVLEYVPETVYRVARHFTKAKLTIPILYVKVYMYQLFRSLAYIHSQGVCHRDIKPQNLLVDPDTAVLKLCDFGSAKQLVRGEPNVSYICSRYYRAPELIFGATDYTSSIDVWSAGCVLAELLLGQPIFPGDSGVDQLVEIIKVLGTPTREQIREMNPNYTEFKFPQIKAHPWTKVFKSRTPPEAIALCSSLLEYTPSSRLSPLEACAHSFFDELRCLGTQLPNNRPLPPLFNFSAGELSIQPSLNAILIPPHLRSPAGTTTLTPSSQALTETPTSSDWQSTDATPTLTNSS

[16] = target: Insulin receptor (Homo sapiens) (UniProt P06213); assay: Inhibition of human recombinant INSR using KKKSPGEYVNIEF as substrate at 1 uM incubated for 40 mins in presence of [gamma32P]-ATP by scintillation counting method relative to control
Chain of Insulin receptor (Homo sapiens) (P06213 28-758 limits assumed): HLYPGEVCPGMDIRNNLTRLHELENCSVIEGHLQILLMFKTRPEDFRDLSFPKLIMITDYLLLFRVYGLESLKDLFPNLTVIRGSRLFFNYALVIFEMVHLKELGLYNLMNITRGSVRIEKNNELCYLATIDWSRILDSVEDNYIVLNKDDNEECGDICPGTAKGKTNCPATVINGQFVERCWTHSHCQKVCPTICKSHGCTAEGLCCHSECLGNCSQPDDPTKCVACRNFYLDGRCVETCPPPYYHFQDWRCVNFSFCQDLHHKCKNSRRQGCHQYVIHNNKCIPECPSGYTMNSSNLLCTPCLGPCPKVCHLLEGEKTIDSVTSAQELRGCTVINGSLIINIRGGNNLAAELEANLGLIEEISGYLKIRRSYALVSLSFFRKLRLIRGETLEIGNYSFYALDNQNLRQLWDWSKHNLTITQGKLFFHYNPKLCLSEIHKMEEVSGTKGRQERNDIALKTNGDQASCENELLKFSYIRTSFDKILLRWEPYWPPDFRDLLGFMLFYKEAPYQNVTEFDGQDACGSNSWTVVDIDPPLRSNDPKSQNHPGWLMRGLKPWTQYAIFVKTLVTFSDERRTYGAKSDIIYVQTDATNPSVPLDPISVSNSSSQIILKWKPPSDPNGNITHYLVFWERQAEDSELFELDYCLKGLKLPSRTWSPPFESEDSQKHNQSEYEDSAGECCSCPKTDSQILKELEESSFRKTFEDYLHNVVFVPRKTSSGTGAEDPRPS
Chain of Insulin receptor (Homo sapiens) (P06213 763-1382 limits assumed): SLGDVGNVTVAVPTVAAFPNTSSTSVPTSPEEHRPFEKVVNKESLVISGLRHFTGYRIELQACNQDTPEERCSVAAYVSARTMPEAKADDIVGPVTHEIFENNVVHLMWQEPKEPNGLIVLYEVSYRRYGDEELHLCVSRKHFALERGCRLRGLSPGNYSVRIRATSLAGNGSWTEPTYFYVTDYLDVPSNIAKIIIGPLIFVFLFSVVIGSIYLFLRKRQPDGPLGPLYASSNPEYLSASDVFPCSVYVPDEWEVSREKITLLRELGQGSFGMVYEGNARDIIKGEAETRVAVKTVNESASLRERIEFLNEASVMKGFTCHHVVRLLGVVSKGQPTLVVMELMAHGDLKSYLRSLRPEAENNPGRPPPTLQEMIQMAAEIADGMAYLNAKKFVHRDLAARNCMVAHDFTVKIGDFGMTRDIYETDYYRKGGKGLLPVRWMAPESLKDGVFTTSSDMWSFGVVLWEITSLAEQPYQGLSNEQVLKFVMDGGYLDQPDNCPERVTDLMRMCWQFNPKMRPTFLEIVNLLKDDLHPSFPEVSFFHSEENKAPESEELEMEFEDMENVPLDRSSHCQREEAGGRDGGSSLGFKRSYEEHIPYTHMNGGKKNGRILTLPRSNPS

[17] = target: Glycogen synthase kinase-3 beta (Homo sapiens, UniProt P49841); assay: Inhibition of GSK3beta (unknown origin) at 0.1 uM incubated for 60 mins by TR-FRET based LanthaScreen Eu kinase binding assay relative to control
Chain of Glycogen synthase kinase-3 beta (P49841 whole entry, looked up): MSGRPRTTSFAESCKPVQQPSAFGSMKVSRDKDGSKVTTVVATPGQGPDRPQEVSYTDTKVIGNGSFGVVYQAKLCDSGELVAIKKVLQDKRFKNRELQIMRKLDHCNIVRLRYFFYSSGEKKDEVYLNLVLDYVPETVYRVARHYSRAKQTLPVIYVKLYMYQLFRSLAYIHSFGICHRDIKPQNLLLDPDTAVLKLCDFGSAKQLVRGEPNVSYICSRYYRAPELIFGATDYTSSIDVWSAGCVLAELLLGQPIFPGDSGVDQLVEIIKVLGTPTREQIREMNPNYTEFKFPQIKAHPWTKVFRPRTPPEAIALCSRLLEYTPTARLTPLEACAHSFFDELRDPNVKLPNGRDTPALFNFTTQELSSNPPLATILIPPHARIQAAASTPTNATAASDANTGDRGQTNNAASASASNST

[18] = Drug metabolism in human hepatocytes assessed as (1S,3R)-3-acetamido-N-(5-chloro-4-(5-(3-hydroxy-2,2-dimethylpropyl)-1H-pyrazol-4-yl)pyridin-2-yl)cyclohexanecarboxamide metabolite formation; assay type: ADME, cell-based, Hepatocyte
[19] = Half-life in mouse at 2.3 umol/kg, iv formulated as solution; assay type: ADME, organism-based; conditions: in vivo, dose 2.3 µmol/kg
MV4-11 = assay: Antitumor activity against human MV4-11 cells xenografted in CB17 SCID mouse assessed as tumor regression at 15 mg/kg, ip BID administered at 2 hrs dosing interval with 2 days on and 5 days off dosing schedule observed for 125 days; assay type: functional; conditions: time 125 day
[20] = Drug metabolism in human liver microsome assessed as (1S,3R)-3-acetamido-N-(5-chloro-4-(7-hydroxy-4,5,6,7-tetrahydropyrazolo[1,5-a]pyridin-3-yl)pyridin-2-yl)cyclohexanecarboxamide formation at 10 uM measured after 1 hr in presence of NADPH by LC-UV-MS analysis; assay type: ADME; conditions: microsomes
[21] = Clearance in Beagle dog plasma at 5.2 umol/kg, iv administered over 0.25 hrs formulated as solution in 5% DMSO; assay type: ADME, organism-based, Canis lupus familiaris; conditions: dose 5.2 µmol/kg
[22] = Clearance in mouse plasma at […], iv formulated as solution; assay type: ADME, organism-based; conditions: dose 4.8 µmol/kg
[23] = Drug metabolism in human liver microsome assessed as 4-(4-(2-((1S,3R)-3-acetamidocyclohexanecarboxamido)-5-chloropyridin-4-yl)-1H-pyrazol-5-yl)butanoic acid formation at 10 uM measured after 1 hr in presence of NADPH by LC-UV-MS analysis; assay type: ADME; conditions: microsomes
[24] = Drug metabolism in human hepatocytes assessed as 4-(4-(2-((1S,3R)-3-acetamidocyclohexanecarboxamido)-5-chloropyridin-4-yl)-1H-pyrazol-5-yl)butanoic acid metabolite formation; assay type: ADME, cell-based, Hepatocyte

With `CC(=O)N[C@@H]1CCC[C@H](C(=O)Nc2cc(-c3cnn4c3CC(C)(C)C4)c(F)cn2)C1` the Drug metabolism [1] was “Metabolite_Detected”, the clearance [2] was 70 mL/min/kg and the Drug metabolism [3] was “Metabolite_Detected”. For the same compound, the Ratio IC50 (Homo sapiens [4]) was 16, the inhibition [5] was 100% and the Ratio IC50 (Homo sapiens [6]) was 16. It also gave a Ratio IC50 (Homo sapiens [7]) of 16, an inhibition (CDK9/cyclin T1) of 100% and a Ratio IC50 (Homo sapiens [8]) of 16.

For `CC(=O)N[C@@H]1CCC[C@H](C(=O)Nc2cc(-c3cnn4c3CC(C)(C)C4)c(Cl)cn2)C1` [ZEMIRCICLIB], the Drug metabolism [9] was “Metabolite_Detected”, the inhibition in vivo at 5 mg/kg (NOMO-1) was 65% and the half-life [10] was 39.6 min. The inhibition [11] was 85%, the inhibition [12] was 84% and the Drug metabolism [13] was “Metabolite_Detected”. It also gave a half-life [14] of 53.4 min, an inhibition [15] of 96% and an inhibition [16] of 83%. The inhibition [17] was 100%, the Drug metabolism [18] was “Metabolite_Detected” and the half-life [19] was 10.8 min. The Activity (MV4-11) was 100%.

With `CC(=O)N[C@@H]1CCC[C@H](C(=O)Nc2cc(-c3cnn4c3CCCC4)c(Cl)cn2)C1` the Drug metabolism [20] was “Metabolite_Detected”, the clearance [21] was 30 mL/min/kg and the clearance [22] was 65 mL/min/kg. For the same compound, the Drug metabolism [23] was “Metabolite_Detected”, the Drug metabolism [24] was “Metabolite_Detected” and the inhibition [5] was 93%. It also gave an inhibition (CDK9/cyclin T1) of 98%.
